Where a SMILES comes first, the peptide text is derived from it.
Tests used:
Conditions in all cases: 10°C
N-SH2 domain of PI3K, WT = molecular target: T1, N-SH2 domain of PI3K, WT (Homo sapiens, UniProt P27986); assay: Stopped-flow binding kinetics, N-SH2 WT
T1 construct: made in house
Protocol: (§1) N-SH2 wild-type and all the site-directed variants were expressed and purified as described previously ([Visconti et al., 2019]). All the mutants were obtained using a QuickChange Lightning Site-Directed Mutagenesis kit (Agilent technologies), accordingly to manufacturer instructions. Peptides with sequence TNSEDNpYVPMNPG mimicking wild-type Gab2 and TNSEDNpYVPANPG mimicking the M457A variant of Gab2 were purchased from GenScript Biotech Corporation.
(§2) Binding kinetics experiments were performed using a single-mixing SX-18 stopped-flow instrument (Applied Photophysics); all binding experiments were conducted in 50 mM Hepes pH 7.4 300 mM NaCl at 10°C. Excitation was at 280 nm and emission was collected using a […] cut-off glass filter. Pseudo-first order binding experiments were performed mixing a constant concentration of dansylated Gab2_448–460 and Gab2_448–460 M457A (1 μM) vs. N-SH2 wt and its mutants at concentrations ranging from […]. For each N-SH2 concentration, usually 5 individual traces were averaged and in all cases the fluorescence time courses obtained was satisfactorily fitted by using a single exponential equation.
(§3) One of the aims of this study is to depict the molecular details of the interaction between the N-SH2 domain of PI3K and Gab2. A powerful strategy to achieve this goal relies on perturbing the system by producing conservative site-directed variants while monitoring the effect of mutations on the association and dissociation rate constants between the interacting partners (kon and koff respectively). Thus, we designed and successfully produced 21 site-directed variants of the N-SH2 domain and challenged them vs. a peptide mimicking the region of Gab2 ranging from residue 448–460 (Gab2_448–460), containing the pY-X-X-M motif that is specifically recognized by the N-SH2 domain ([Waksman et al., 1992]; [Songyang et al., 1993]). The choise of mutations was designed in analogy to phi-value analysis methodology in protein folding studies ([Fersht and Sato, 2004]). […] To monitor binding by fluorescence, a dansyl group was added at the N-terminus of the peptide. The binding reaction was monitored by stopped-flow experiments following the change in FRET signal, taking advantage of the two Trp residues on the N-SH2 domain in positions 12 and 14 as fluorescence donor and the dansyl group on Gab2_448–460 as acceptor. The experiments were performed in pseudo-first order conditions with Gab2_448–460 at fixed concentration of 1 μM rapidly mixed vs. large excess of N-SH2 wt and its variants, ranging from 4 to 14 μM, in buffer Hepes 50 mM, NaCl 300 mM, pH 7.4, at 10°C.
(§4) with kon being the slope of the line and koff the intercept with the y-axis. Since indirect calculation of koff obtained by extrapolation is associated with high experimental error, we performed displacement experiments to directly measure koff by challenging a pre-incubated complex of dansylated Gab2_448–460 and N-SH2 domain both at the concentration of 1 μM vs. a large excess of non-dansylated Gab2_448–460 (50 μM). Kinetic parameters extracted from data together with the calculated changes in activation and equilibrium free energies are reported in Table 1. Analysis of kinetic data highlights that T48S, L51A, and L59A variations cause a detectable decrease of the affinity of the domain for Gab2_448–460 of ∼10-fold, affecting both the kon and koff. […] Since L99 residue is part of the binding pocket, this dramatic effect on the binding affinity is expected.
(§5) SH2 domains bind ligands with a phosphorylated tyrosine in their sequence. The N-SH2 domain of PI3K is known to recognize a specific consensus sequences that present a methionine in position +3 in respect to the phosphotyrosine (M457 in Gab2). […]

[1] = molecular target: T2, N-SH2 domain of PI3K, I62V variant (Homo sapiens, UniProt P27986, I383V); assay: Stopped-flow binding kinetics, N-SH2 I62V
T2 construct: made in house
Protocol: as §1, §2, §3, §4, §5

[2] = molecular target: T3, N-SH2 domain of PI3K, L75A variant (Homo sapiens, UniProt P27986, L396A); assay: Stopped-flow binding kinetics, N-SH2 L75A
T3 construct: made in house
Protocol: as §1, §2, §3, §4, §5

[3] = molecular target: T4, N-SH2 domain of PI3K, V81A variant (Homo sapiens, UniProt P27986, V402A); assay: Stopped-flow binding kinetics, N-SH2 V81A
T4 construct: made in house
Protocol: as §1, §2, §3, §4, §5

[4] = molecular target: T5, N-SH2 domain of PI3K, T50S variant (Homo sapiens, UniProt P27986, T371S); assay: Stopped-flow binding kinetics, N-SH2 T50S
T5 construct: made in house
Protocol: as §1, §2, §3, §4, §5

[5] = molecular target: T6, N-SH2 domain of PI3K, A30G variant (Homo sapiens, UniProt P27986, A351G); assay: Stopped-flow binding kinetics, N-SH2 A30G
T6 construct: made in house
Protocol: as §1, §2, §3, §4, §5

[6] = molecular target: T7, N-SH2 domain of PI3K, V22A variant (Homo sapiens, UniProt P27986, V343A); assay: Stopped-flow binding kinetics, N-SH2 V22A
T7 construct: made in house
Protocol: as §1, §2, §3, §4, §5

[7] = molecular target: T8, N-SH2 domain of PI3K, P74A variant (Homo sapiens, UniProt P27986, P395A); assay: Stopped-flow binding kinetics, N-SH2 P74A
T8 construct: made in house
Protocol: as §1, §2, §3, §4, §5

[8] = molecular target: T9, N-SH2 domain of PI3K, L51A variant (Homo sapiens, UniProt P27986, L372A); assay: Stopped-flow binding kinetics, N-SH2 L51A
T9 construct: made in house
Protocol: as §1, §2, §3, §4, §5

[9] = displacement experiment, pH 7.4, 300 mM NaCl
[10] = stopped-flow FRET, 1 μM dansylated peptide, 50 mM Hepes pH 7.4, 300 mM NaCl
[11] = stopped-flow kinetics, pH 7.4, 300 mM NaCl

T2 sequence (P27986 333-428 I383V): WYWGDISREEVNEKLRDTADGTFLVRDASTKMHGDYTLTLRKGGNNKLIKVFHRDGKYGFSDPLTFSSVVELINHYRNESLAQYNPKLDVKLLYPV
T4 sequence (P27986 333-428 V402A): as the sequence (P27986 333-428 I383V) above, with V51I, V70A counted along it
T6 sequence (P27986 333-428 A351G): as the sequence (P27986 333-428 I383V) above, with A19G, V51I counted along it
T8 sequence (P27986 333-428 P395A): as the sequence (P27986 333-428 I383V) above, with V51I, P63A counted along it
T5 sequence (P27986 333-428 T371S): as the sequence (P27986 333-428 I383V) above, with T39S, V51I counted along it
T1 sequence (P27986 333-428 limits assumed): as the sequence (P27986 333-428 I383V) above, with V51I counted along it
T7 sequence (P27986 333-428 V343A): as the sequence (P27986 333-428 I383V) above, with V11A, V51I counted along it
T9 sequence (P27986 333-428 L372A): as the sequence (P27986 333-428 I383V) above, with L40A, V51I counted along it
T3 sequence (P27986 333-428 L396A): as the sequence (P27986 333-428 I383V) above, with V51I, L64A counted along it

## CSCC[C@H](NC(=O)[C@@H]1CCCN1C(=O)[C@@H](NC(=O)[C@H](Cc1ccc(OP(=O)(O)O)cc1)NC(=O)[C@H](CC(N)=O)NC(=O)[C@H](CC(=O)O)NC(=O)[C@H](CCC(=O)O)NC(=O)[C@H](CO)NC(=O)[C@H](CC(N)=O)NC(=O)[C@@H](N)[C@@H](C)O)C(C)C)C(=O)N[C@@H](CC(N)=O)C(=O)N1CCC[C@H]1C(=O)NCC(=O)O [Gab2_448–460] (HELM PEPTIDE1{T.N.S.E.D.N.[O=C([C@H](Cc1ccc(OP(=O)(O)O)cc1)N[*:1])[*:2]].V.P.M.N.P.G}$$$$V2.0)
N-SH2 domain of PI3K, WT; displacement of 1 μM complex by 50 μM non-dansylated Gab2_448–460, 50 mM Hepes pH 7.4, 300 mM NaCl
  koff: 3.9 ± 0.2 s⁻¹
N-SH2 domain of PI3K, WT; from stopped-flow kinetics, pH 7.4, 300 mM NaCl
  Kd: 0.2 ± 0.1 µM
N-SH2 domain of PI3K, WT; stopped-flow FRET, 1 μM dansylated peptide vs excess N-SH2, 50 mM Hepes pH 7.4, 300 mM NaCl, slope of kobs
  kon: 1.95e+07 ± 1e+06 M⁻¹ s⁻¹
[1]; [9]
  koff: 4.5 ± 0.2 s⁻¹
[1]; [10]
  kon: 1.55e+07 ± 1.4e+06 M⁻¹ s⁻¹
[1]; [11]
  Kd: 0.3 ± 0.1 µM
[2]; [9]
  koff: 6.1 ± 0.3 s⁻¹
[2]; [10]
  kon: 8.1e+06 ± 1.1e+06 M⁻¹ s⁻¹
[2]; [11]
  Kd: 0.8 ± 0.1 µM
[3]; [9]
  koff: 4.5 ± 0.2 s⁻¹
[3]; [10]
  kon: 1.2e+07 ± 1.4e+06 M⁻¹ s⁻¹
[3]; [11]
  Kd: 0.4 ± 0.1 µM
[4]; [9]
  koff: 9.3 ± 0.5 s⁻¹
[4]; [10]
  kon: 1.56e+07 ± 800000 M⁻¹ s⁻¹
[4]; [11]
  Kd: 0.6 ± 0.1 µM
[5]; [9]
  koff: 3.7 ± 0.2 s⁻¹
[5]; [10]
  kon: 2.92e+07 ± 2e+06 M⁻¹ s⁻¹
[5]; [11]
  Kd: 0.1 ± 0.1 µM
[6]; [9]
  koff: 7.4 ± 0.4 s⁻¹
[6]; [10]
  kon: 1.12e+07 ± 400000 M⁻¹ s⁻¹
[6]; [11]
  Kd: 0.7 ± 0.1 µM
[7]; [9]
  koff: 27 ± 1 s⁻¹
[7]; [10]
  kon: 4.87e+07 ± 1.5e+06 M⁻¹ s⁻¹
[7]; [11]
  Kd: 0.6 ± 0.1 µM
[8]; [9]
  koff: 18 ± 1 s⁻¹
[8]; [10]
  kon: 5.6e+06 ± 1.1e+06 M⁻¹ s⁻¹
[8]; [11]
  Kd: 3.2 ± 0.2 µM
